Data as given in patent US11523607B2, “Sperm storage media comprising MHY 1485 for enhancing sperm quality and function” (UNIVERSIDADE DO PORTO, priority 2017, dated 2022).

What was measured:
Assay type in all cases: cell-based
[1] = test system: Human spermatozoa; assay: Human spermatozoa DNA fragmentation after storage (Halosperm kit); details: 2 μg/mL, 37° C., 120 minutes storage
Experimental: (§1) FIG. 5—Human spermatozoa DNA fragmentation after storage for 120 minutes at 37° C. Spermatozoa were stored in Sperm Preparation Medium (ORIGIO, Måløv, Denmark) not supplemented (Control) or supplemented with an mTOR activator (MHY 1485). Spermatozoa were also incubated with an mTOR inhibitor (Rapamycin; Rap) as a negative control. DNA fragmentation was assessed using a Halosperm G2 kit (HALOTECH, Madrid, Spain). Results are presented as mean±standard error of the mean (n=12); Significant results (P<0.05) are indicated as *-vs. Control.
(§2) We evaluated the use of an mTOR activator (MHY 1485) as an additive during sperm storage at 37° C. […] We assessed key sperm quality parameters, namely sperm viability and sperm motility, using standard methods, as described by the guidelines of the World Health Organization, with the supervision of a certified embryologist. We also evaluated the oxidative damages to sperm DNA (DNA fragmentation), proteins (protein carbonylation) and lipids (lipid peroxidation). Sperm DNA fragmentation was assessed using the Halosperm® kit (Halotech DNA SL, Madrid, Spain). Sperm protein carbonylation and lipid peroxidation were evaluated using specific antibodies (ABCAM®, Cambridge, USA) raised against 2,4-dinitrophenol groups and anti-4-hydroxynonenal groups (respectively). […]

[2] = test system: Human spermatozoa; assay: Human spermatozoa metabolism during storage (glucose consumption, lactate production by 1H-NMR); details: 2 μg/mL, 37° C.
Experimental: as §1, with “3—Human” for “5—Human”, “metabolism during” for “DNA fragmentation after”, “Sperm glucose consumption and lactate production were” for “DNA fragmentation was”, “by 1H nuclear magnetic resonance.” for “using a Halosperm G2 kit (HALOTECH, Madrid, Spain).”
We evaluated the use of an mTOR activator (MHY 1485) as an additive during sperm storage at 37° C. We added the mTOR activator (at a concentration of 2 μg/mL) to a commercial sperm storage medium (Sperm Preparation Medium®; Origio, Malay, Denmark) and stored the spermatozoa suspension (2 million spermatozoa per mL) in microtubes (at 37° C. in a 5% CO2 incubator) for up to 120 minutes, evaluating key parameters of quality and the degree of oxidative damages to those cells at regular intervals (0, 30 and 120 minutes). We assessed key sperm quality parameters, namely sperm viability and sperm motility, using standard methods, as described by the guidelines of the World Health Organization, with the supervision of a certified embryologist. We also evaluated the oxidative damages to sperm DNA (DNA fragmentation), proteins (protein carbonylation) and lipids (lipid peroxidation). Sperm DNA fragmentation was assessed using the Halosperm® kit (Halotech DNA SL, Madrid, Spain). Sperm protein carbonylation and lipid peroxidation were evaluated using specific antibodies (ABCAM®, Cambridge, USA) raised against 2,4-dinitrophenol groups and anti-4-hydroxynonenal groups (respectively). The metabolic alterations of spermatozoa were also evaluated by means of the proton magnetic resonance technique (1H-NMR), using a Varian 600 MHz spectrometer equipped with a 3 mm indirect detection probe with z-gradient (Varian, Palo Alto, USA). At the end of the storage, we evaluated the capacitation potential of the spermatozoa, by incubating the cells in a commercial medium (Lifeglobal®, Guilford, USA) and assessing the 3-nitrotyrosine levels using specific antibodies (ABCAM®, Cambridge, USA). An mTOR inhibitor (Rapamycin at a concentration of 0,1 μg/mL) was used as a negative control.

[3] = test system: Human spermatozoa; assay: Human spermatozoa capacitation after storage; details: 2 μg/mL in Sperm Preparation Medium, 37° C.
Experimental: FIG. 4—Human spermatozoa capacitation after storage for 120 minutes at 37° C. Spermatozoa were stored in Sperm Preparation Medium (ORIGIO, Måløv, Denmark) not supplemented (Control) or supplemented with an mTOR activator (MHY 1485). Spermatozoa were also incubated with an mTOR inhibitor (Rapamycin; Rap) as a negative control. Sperm capacitation was assessed by evaluating sperm phosphotyrosine levels after 180 minutes incubation in Sperm Capacitation Medium (LifeGlobal Europe, Brussels, Belgium). Results are presented as mean±standard error of the mean (n=12); Significant results (P<0.05) are indicated as *-vs. Control.
as §2

[4] = test system: Human spermatozoa; assay: Human spermatozoa motility after storage; details: 2 μg/mL in Sperm Preparation Medium, 37° C.
Experimental: as §1, with “2—Human” for “5—Human”, “motility” for “DNA fragmentation”, “during” for “for”, “control.” for “control. DNA fragmentation was assessed using a Halosperm G2 kit (HALOTECH, Madrid, Spain).”
as §2

[5] = test system: Human spermatozoa; assay: Human spermatozoa viability after storage (eosin-nigrosin staining); details: 2 μg/mL in Sperm Preparation Medium, 37° C.
Experimental: FIG. 1—Human spermatozoa viability after storage during 120 minutes at 37° C. Spermatozoa were stored in Sperm Preparation Medium (ORIGIO, Måløv, Denmark) not supplemented (Control) or supplemented with an mTOR activator (MHY 1485). Spermatozoa were also incubated with an mTOR inhibitor (Rapamycin; Rap) as a negative control. Viability was assessed by the eosin-nigrosin staining method. Results are presented as mean±standard error of the mean (n=12); Significant results (P<0.05) are indicated as *-vs. Control.
as §2

[6] = test system: Human spermatozoa; assay: Human spermatozoa lipid peroxidation after storage (immunoblot); details: 2 μg/mL, 37° C., 120 minutes storage
Experimental: (§3) FIG. 6—Human spermatozoa oxidative damage to proteins (carbonylation) and lipids (peroxidation) after storage for 120 minutes at 37° C. Spermatozoa were stored in Sperm Preparation Medium (ORIGIO, Måløv, Denmark) not supplemented (Control) or supplemented with an mTOR activator (MHY 1485). Spermatozoa were also incubated with an mTOR inhibitor (Rapamycin; Rap) as a negative control. Protein carbonylation was assessed by immunobloting a specific @DNP antibody (SigmaAldrich, St. Louis, Mo., USA). Lipid peroxidation was assessed by immunobloting a specific @HNE antibody (Merck Millipore, Temecula, USA). […]
as §2

[7] = test system: Human spermatozoa; assay: Human spermatozoa protein carbonylation after storage (immunoblot); details: 2 μg/mL, 37° C., 120 minutes storage
Experimental: as §3, §2

sperm DNA integrity (DNA fragmentation) [1]: DNA remaining fully intact
Structure (SMILES): O=[N+]([O-])c1ccc(Nc2nc(N3CCOCC3)nc(N3CCOCC3)n2)cc1 [MHY 1485]
consumption of hexoses ([2]; 30 minutes storage): no differences were observed
production of lactate ([2]; 30 minutes storage): no differences were observed
glucose consumption ([2]; 120 minutes storage): maintained
lactate production ([2]; 120 minutes storage): increased
capacitation potential ([3]; 120 minutes storage): capable to preserve sperm viability and its capacitation potential
capacitation potential ([3]; during storage): sustain its capacitation potential
spermatozoa motility ([4]; 120 minutes storage): sustaining a higher motility
spermatozoa motility ([4]; during storage): capable to maintain sperm motile
percentage of viable sperm ([5]; 30 minutes storage, vs time zero): maintained the percentage of viable sperm at similar levels as those of time zero
sperm viability ([5]; 120 minutes storage): capable to preserve sperm viability
lipid oxidative damage (lipid peroxidation) [6]: not increased
sperm protein oxidative damage (protein carbonylation) [7]: not increased
